IC50 data for 27 molecules are collected here from patent publication US8895585B2, “Nicotinamide derivative or salt thereof” (FUJIFILM Corporation, priority 2010, dated 2014).

The target of test [1] is T1, glutathione S-transferase (GST)-fused full-length human Syk protein (Homo sapiens, UniProt P43405).
T1 construct: (GST)-fused full-length human Syk protein; GST (glutathione S-transferase); purchased Carna Biosciences
Kind of test: Syk enzyme assay. In kind it is biochemical. The following applies: Syk enzyme assay, Test Example 1; read-out: IC50 of Syk-inhibitory activity. A digest of the protocol:
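IC50 values come from a time-resolved FRET readout (615 and 665 nm) of substrate phosphorylation, measured after an EDTA stop and 1 h antibody binding. The kinase reaction ran 40 min at room temperature with 27 μM ATP and 0.4 μM biotin-peptide, following a 15 min compound preincubation with baculovirus-made GST-full-length human Syk.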

Another test relates to THP-1 cells. Kind of test: TNFα generation assay. The class given is cell-based, human. The following applies: Homo sapiens, THP-1, THP-1 cells; Table 22; read-out: IC50 in TNFα generation assay. The method, boiled down: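 THP-1 cells differentiated to macrophage-like cells with 10 ng/ml IFN-γ for 2 days, preincubated with compound 30 min at room temperature, then cultured 7 h on plates coated with human IgG (10 μg/ml). Secreted TNFα measured by ELISA or AlphaLISA.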

A value given as a limit tells only on which side of the number the result lay.

On to `COCCOc1cc(Nc2nc(N[C@H](c3ccc(F)cc3)[C@H](C)N)c(F)cc2C(N)=O)ccn1` [Example 006-559, 6-(((1R,2S)-2-amino-1-(4-fluorophenyl)propyl)amino)-5-fluoro-2-((2-(2-methoxyethoxy)pyridin-4-yl)amino)nicotinamide], for which the figures for the IC50 (in test [1]; in the test with THP-1 cells) were < 10 nM and 65 to 130 nM, respectively.
For `CC[C@@H](Nc1nc(Nc2ccc3c(c2)c(N2CCOCC2)nn3C)c(C(N)=O)cc1F)[C@H](C)N` [Example 006-563, 6-(((2S,3R)-2-aminopentan-3-yl)amino)-5-fluoro-2-((1-methyl-3-morpholino-1H-indazol-5-yl)amino)nicotinamide], the figures for the IC50 (in test [1]; in the test on THP-1 cells) were < 10 nM and 130 to 200 nM, respectively.
Regarding `COc1ncc(Nc2nc(N[C@@H]3CCCC[C@@H]3N)c(F)cc2C(N)=O)cc1N1CCOCC1` [Example 006-564, 6-(((1R,2S)-2-aminocyclohexyl)amino)-5-fluoro-2-((6-methoxy-5-mopholinopyridin-3-yl)amino)nicotinamide], the figures for the IC50 (in test [1]; in the test with THP-1 cells) were 100 to 1000 nM and 65 to 130 nM, respectively.
`CCOc1ncc(Nc2nc(N[C@@H]3CCCC[C@@H]3N)c(F)cc2C(N)=O)cc1N1CCOCC1` [Example 006-565, 6-(((1R,2S)-2-aminocyclohexyl)amino)-2-((6-ethoxy-5-morpholinopyridin-3-yl)amino)-5-fluoronicotinamide]: the IC50 in test [1] lay within 100 to 1000 nM; in the test with THP-1 cells, 65 to 130 nM.
Take `CCOc1ncc(Nc2nc(N[C@@H]3CCCC[C@@H]3N)c(F)cc2C(N)=O)cc1F` [Example 006-572, 6-(((1R,2S)-2-aminocyclohexyl)amino)-2-((6-ethoxy-5-fluoropyridin-3-yl)amino)-5-fluoronicotinamide]: the IC50 in test [1] lay within 10 to 50 nM; in the test with THP-1 cells, 130 to 200 nM.
As for `COCCOc1ncc(Nc2nc(N[C@@H]3CCCC[C@@H]3N)c(F)cc2C(N)=O)cc1-n1cccn1` [Example 006-575, 6-(((1R,2S)-2-aminocyclohexyl)amino)-2-((6-(2-methoxyethoxy)-5-(1H-pyrazol-1-yl)pyridin-3-yl)amino)-5-fluoronicotinamide], the IC50 lay within 10 to 50 nM in test [1] and 130 to 200 nM with THP-1 cells.
In the case of `CCn1ncc2c(Nc3nc(N[C@H](C4CC4)[C@H](C)N)c(F)cc3C(N)=O)cccc21` [Example 006-576, 6-(((1R,2S)-2-amino-1-cyclopropylpropyl)amino)-2-((1-ethyl-1H-indazol-4-yl)amino)-5-fluoronicotinamide], the IC50 in test [1] was < 10 nM; in the test on THP-1 cells, < 65 nM.
For `C[C@H](N)[C@H](Nc1nc(Nc2ccc3c(c2)c(F)nn3C)c(C(N)=O)cc1F)C1CC1` [Example 006-577, 6-(((1R,2S)-2-amino-1-cyclopropylpropyl)amino)-2-((3-fluoro-1-methyl-1H-indazol-5-yl)amino)-5-fluoronicotinamide], the IC50 in test [1] was < 10 nM; with THP-1 cells, < 65 nM.
Consider `CCc1nn(C)c2ccc(Nc3nc(N[C@H](C4CC4)[C@H](C)N)c(F)cc3C(N)=O)cc12` [Example 006-578, 6-(((1R,2S)-2-amino-1-cyclopropylpropyl)amino)-2-((3-ethyl-1-methyl-1H-indazol-5-yl)amino)-5-fluoronicotinamide], for which the results for the IC50 (in test [1]; in the test with THP-1 cells) were < 10 nM and 65 to 130 nM, respectively.
On to `CCc1nn(CC)c2ccc(Nc3nc(N[C@H](C4CC4)[C@H](C)N)c(F)cc3C(N)=O)cc12` [Example 006-579, 6-(((1R,2S)-2-amino-1-cyclopropylpropyl)amino)-2-((1,3-diethyl-1H-indazol-5-yl)amino)-5-fluoronicotinamide], for which the IC50 in test [1] was < 10 nM; in the test with THP-1 cells it was 65 to 130 nM.
Consider `CC(C)c1nn(C)c2ccc(Nc3nc(N[C@H](C4CC4)[C@H](C)N)c(F)cc3C(N)=O)cc12` [Example 006-580, 6-(((1R,2S)-2-amino-1-cyclopropylpropyl)amino)-5-fluoro-2-((3-isopropyl-1-methyl-1H-indazol-5-yl)amino)nicotinamide], for which the IC50 in test [1] is < 10 nM; in the test with THP-1 cells, 130 to 200 nM.
In the case of `CCn1ncc2ccc(Nc3nc(N[C@H](C4CC4)[C@H](C)N)c(F)cc3C(N)=O)cc21` [Example 006-581, 6-(((1R,2S)-2-amino-1-cyclopropylpropyl)amino)-2-((1-ethyl-1H-indazol-6-yl)amino)-5-fluoronicotinamide], the IC50 in test [1] is < 10 nM; in the test with THP-1 cells, < 65 nM.
In the same order, the values of `CCn1nc(C)c2cc(Nc3nc(N[C@H](C4CC4)[C@H](C)N)c(F)cc3C(N)=O)ccc21` [Example 006-583, 6-(((1R,2S)-2-amino-1-cyclopropylpropyl)amino)-2-((1-ethyl-3-methyl-1H-indazol-5-yl)amino)-5-fluoronicotinamide] are < 10 nM and < 65 nM.
`Cc1nn(CC(F)F)c2ccc(Nc3nc(N[C@H](C4CC4)[C@H](C)N)c(F)cc3C(N)=O)cc12` [Example 006-584, 6-(((1R,2S)-2-amino-1-cyclopropylpropyl)amino)-2-((1-(2,2-difluoroethyl)-3-methyl-1H-indazol-5-yl)amino)-5-fluoronicotinamide]: the IC50 is < 10 nM in test [1] and 65 to 130 nM in the test on THP-1 cells.
Consider `COc1nn(C)c2ccc(Nc3nc(N[C@@H]4CCCC[C@@H]4N)c(F)cc3C(N)=O)cc12` [Example 006-585, 6-(((1R,2S)-2-aminocyclohexyl)amino)-5-fluoro-2-((3-methoxy-1-methyl-1H-indazol-5-yl)amino)nicotinamide], for which the IC50 in test [1] was < 10 nM; in the test with THP-1 cells, < 65 nM.
Turning to `COc1nn(C)c2ccc(Nc3nc(N[C@H](CC4CC4)[C@H](C)N)c(F)cc3C(N)=O)cc12` [Example 006-586, 6-(((2R,3S)-3-amino-1-cyclopropylbutan-2-yl)amino)-5-fluoro-2-((3-methoxy-1-methyl-1H-indazol-5-yl)amino)nicotinamide], the figures for the IC50 (in test [1]; with THP-1 cells) were < 10 nM and 65 to 130 nM, respectively.
As for `COc1nn(C)c2ccc(Nc3nc(N[C@H](CC(C)C)[C@H](C)N)c(F)cc3C(N)=O)cc12` [Example 006-587, 6-(((2S,3R)-2-amino-5-methylhexan-3-yl)amino)-5-fluoro-2-((3-methoxy-1-methyl-1H-indazol-5-yl)amino)nicotinamide], the figures for the IC50 (in test [1]; in the test with THP-1 cells) were < 10 nM and 65 to 130 nM, respectively.
Regarding `CC[C@@H](Nc1nc(Nc2ccc3c(c2)c(OC)nn3C)c(C(N)=O)cc1F)[C@H](C)N` [Example 006-588, 6-(((2S,3R)-2-aminopentan-3-yl)amino)-5-fluoro-2-((3-methoxy-1-methyl-1H-indazol-5-yl)amino)nicotinamide], the figures for the IC50 (in test [1]; with THP-1 cells) were < 10 nM and < 65 nM, respectively.
As to `COc1nn(C)c2ccc(Nc3nc(N[C@H](C4CC4)[C@H](C)N)c(F)cc3C(N)=O)cc12` [Example 006-589, 6-(((1R,2S)-2-amino-1-cyclopropylpropyl)amino)-5-fluoro-2-((3-methoxy-1-methyl-1H-indazol-5-yl)amino)nicotinamide], the IC50 in test [1] is < 10 nM; with THP-1 cells, 65 to 130 nM.
In the same order, the values of `CCOc1nn(CC)c2ccc(Nc3nc(N[C@@H]4CCCC[C@@H]4N)c(F)cc3C(N)=O)cc12` [Example 006-590, 6-(((1R,2S)-2-aminocyclohexyl)amino)-2-((3-ethoxy-1-ethyl-1H-indazol-5-yl)amino)-5-fluoronicotinamide] are < 10 nM and 130 to 200 nM.
The matching figures for `CCOc1nn(CC)c2ccc(Nc3nc(N[C@H](CC4CC4)[C@H](C)N)c(F)cc3C(N)=O)cc12` [Example 006-591, 6-(((2R,3S)-3-amino-1-cyclopropylbutan-2-yl)amino)-2-((3-ethoxy-1-ethyl-1H-indazol-5-yl)amino)-5-fluoronicotinamide]: < 10 nM and 130 to 200 nM.
The matching figures for `CCOc1nn(CC)c2ccc(Nc3nc(N[C@H](CC(C)C)[C@H](C)N)c(F)cc3C(N)=O)cc12` [Example 006-592, 6-(((2S,3R)-2-amino-5-methylhexan-3-yl)amino)-2-((3-ethoxy-1-ethyl-1H-indazol-5-yl)amino)-5-fluoronicotinamide]: < 10 nM and 130 to 200 nM.
As to `CCOc1nn(CC)c2ccc(Nc3nc(N[C@H](CC)[C@H](C)N)c(F)cc3C(N)=O)cc12` [Example 006-593, 6-(((2S,3R)-2-aminopentan-3-yl)amino)-2-((3-ethoxy-1-ethyl-1H-indazol-5-yl)amino)-5-fluoronicotinamide], the IC50 in test [1] was < 10 nM; in the test on THP-1 cells, 65 to 130 nM.
In the same order, the values of `CC[C@@H](Nc1nc(Nc2ccc3c(c2)c(-n2cccn2)nn3C)c(C(N)=O)cc1F)[C@H](C)N` [Example 006-596, 6-(((2S,3R)-2-aminopentan-3-yl)amino)-5-fluoro-2-((1-methyl-3-(1H-pyrazol-1-yl)-1H-indazol-5-yl)amino)nicotinamide] are < 10 nM and 65 to 130 nM.
Turning to `Cc1cc(Nc2nc(N[C@H](C3CCC3)[C@H](C)N)c(F)cc2C(N)=O)cnc1C` [Example 006-597, 6-(((1R,2S)-2-amino-1-cyclobutylpropyl)amino)-2-((5,6-dimethylpyridin-3-yl)amino)-5-fluoronicotinamide], the figures for the IC50 (in test [1]; in the test with THP-1 cells) were < 10 nM and 65 to 130 nM, respectively.
Take `Cc1ncc(Nc2nc(N[C@H](C3CCC3)[C@H](C)N)c(F)cc2C(N)=O)cc1-n1nccn1` [Example 006-598, 6-(((1R,2S)-2-amino-1-cyclobutylpropyl)amino)-5-fluoro-2-((6-methyl-5-(2H-1,2,3-triazol-2-yl)pyridin-3-yl)amino)nicotinamide]: the results for the IC50 (in test [1]; in the test on THP-1 cells) were < 10 nM and 130 to 200 nM, respectively.
Turning to `COc1cc(Nc2nc(NCCN)c(F)cc2C(N)=O)cc(OC)c1` [Example 008-001], the IC50 lay in the range of 10 to 50 nM in test [1] and 65 to 130 nM with THP-1 cells.
